The source of these data is patent publication US7790899B2, “Synthesis of N-(4-fluorobenzyl)-N-(1-methylpiperidin-4-yl)-N′-(4-(2-methylpropyloxy)phenylmethyl)carbamide and its tartrate salt and crystalline forms” (ACADIA Pharmaceuticals, Inc., priority 2004, dated 2010).

A short description of data set [1]: Particle size distribution. Type of data set: physicochemical.
Data set [2] can be described thus: Stability of the crystal forms (general findings). Type of data set: physicochemical.
A short description of data set [3]: Water absorption and behaviour on exposure to relative humidity. Type of data set: physicochemical.
Data set [4] is described as follows: Stability test, exposure to humidity (open containers, 60° C., 75% relative humidity). It is filed as physicochemical. The note with it: 1 week and 2 weeks. How it is done: (§1) HPLC: HPLC measurements were carried out with a HP LC1090M, Column Symmetry C18, 3.0·150 mm.
The compounds of Examples 3(b) (polymorph A), 25 (polymorph B), and 36 (polymorph C) were placed in open containers and exposed 1 week and 2 weeks at 60° C. and 75% relative humidity. In polymorph A, a water content of 2.8% was detected and the HPLC purity was 80%.

Data set [5] in a line: Stability test, thermal treatment (sealed ampoules, 100° C., HPLC purity). The conditions noted are these: 1 week. It is filed as physicochemical. How it is done: as §1
The compounds of Examples 3(b) (polymorph A), 25 (polymorph B), and 36 (polymorph C) were placed in sealed ampoules and exposed for 1 week to 100° C. […] The products where analyzed by HPLC and the purity was detected to indicate chemical stability via decomposition.

Data set [6] can be described thus: Solubility statements in the description.
Data set [7] can be described thus: Stability of crystalline Form C at 60% RH and 25° C. Type of data set: physicochemical. Further details: key to Powder X-Ray Diffraction (PXRD): C = Conforms with Reference. The note with it: for Assay (Active Ingredient %) / Individual Related Substances (%) / Moisture, KF (%) / Powder X-Ray Diffraction (PXRD) / Product Appearance / Total Related Substances (%) / Impurity D: 25° C./60% RH. How it is done: (§2) A first batch of crystalline Form C was exposed to 60% RH (relative humidity) at 25° C. for 12 months and a second batch was exposed to 75% RH at 40° C. for 6 months. No changes in polymorphic purities were observed under all the conditions tested, and Form C was the only polymorph detected. The batches were tested for appearance, Total Drug Assay, Related Substances, moisture, and the presence of Impurity D. Appearance of the bulk drug substance was evaluated by visual inspection for color homogeneity, foreign material and texture. Total Drug Assay was determined on an HPLC system with UV detection at 226 nm. A Waters XTerra RP185 μm (4.6×250 mm) column was used at 30° C. The mobile phase was acetonitrile: 5 mM ammonium acetate, pH 10.0 (46:54 v/v). The injection volume aws 20 μL. The run time was 30 min with a flow rate of 1.0 mL/min. Related Substances were analyzed utilizing gradient reversed-phase HPLC with UV detection at 226 nm. A Waters Symmetry C183.5 μm, (150×4.6 mm) column was used at 35° C. Mobile phase A was water with 0.1% TFA and mobile phase B was acetonitrile with 0.1% TFA. The injection volume was 20 μL. The run time was 35 min with a flow rate of 1.0 mL/min. Related substances were quantitated by peak area percent. Moisture was determined with a 737 Karl Fischer Coulometric titrator. The apparatus was operated using Hydranal-Coulomat AG and Hydranal standard-0.1% water check solution-Coulomat AG.

Data set [8] can be described thus: Stability of crystalline Form C at 75% RH and 40° C. It is filed as physicochemical. Further details: key to Powder X-Ray Diffraction (PXRD): C = Conforms with Reference. The note with it: 40° C./75% RH. How it is done: as §2
A short description of data set [9]: Approximate solubility of the crystalline free base in solvents at room temperature. Type of data set: physicochemical.

SMILES strings stand for the structures. Where a name gives a salt, the structure may show the parent alone. Read-outs that look alike come from different tables or passages of the source.

For `CC(C)COc1ccc(CNC(=O)N(Cc2ccc(F)cc2)C2CCN(C)CC2)cc1` [Example 56, N-(4-fluorobenzyl)-N-(1-methylpiperidin-4-yl)-N′-(4-(2-methylpropyloxy)phenylmethyl)carbamide hemi-tartrate], in data set [1], the “diameter of about 10% of the particles” value is recorded as no more than 5 μm, the “diameter of about 50% of the particles” value is given as no more than 18 μm and the “diameter of about 90% of the particles” value is listed as no more than 35 μm.

Take `CC(C)COc1ccc(CNC(=O)N(Cc2ccc(F)cc2)C2CCN(C)CC2)cc1` [Example 60, N-(4-fluorobenzyl)-N-(1-methylpiperidin-4-yl)-N′-(4-(2-methylpropyloxy)phenylmethyl)carbamide tartrate]: in data set [1], the “diameter of about 10% of the particles” value is no more than 9 μm, the “diameter of about 50% of the particles” value is recorded as no more than 30 μm and the “diameter of about 90% of the particles” value is recorded as no more than 55 μm.

For the compound `CC(C)COc1ccc(CNC(=O)N(Cc2ccc(F)cc2)C2CCN(C)CC2)cc1.CC(C)COc1ccc(CNC(=O)N(Cc2ccc(F)cc2)C2CCN(C)CC2)cc1.O=C(O)C(O)C(O)C(=O)O` [Form B, N-(4-fluorobenzyl)-N-(1-methylpiperidin-4-yl)-N′-(4-(2-methylpropyloxy)phenylmethyl)carbamide hemi-tartrate], the “Stability at ambient temperatures” value in data set [2] (ambient temperatures) was “stable”. Further, the “Water uptake when exposed to high humidity” value in data set [3] (above 80% relative humidity) is reported as “considerable water uptake”. Moreover, the “Stability under ambient water partial pressures” value in data set [3] (relative humidities between 20% and 75%) is recorded as “sufficient stability”. For the same compound, in data set [4], the “Change of crystal form after exposure to humidity” value is “transformed to polymorph C”. In addition, in [4] (listed as polymorph B), the “HPLC purity after exposure to humidity” value turned out to be 94.6% and the “water content after exposure to humidity” value was 1.9%. For the same compound, the “HPLC purity after thermal treatment” value in data set [5] (listed as polymorph B) is listed as 28.3%.

For the compound `CC(C)COc1ccc(CNC(=O)N(Cc2ccc(F)cc2)C2CCN(C)CC2)cc1` [Form C, N-(4-fluorobenzyl)-N-(1-methylpiperidin-4-yl)-N′-(4-(2-methylpropyloxy)phenylmethyl)carbamide hemi-tartrate], in data set [2], the “Stability compared with all found crystal forms” value is recorded as “most stable form”. For the same compound, the “Dynamic pour absorption experiments: water absorption” value in [3] is given as “does not absorb water”. Moreover, the “Stability in an open container” value in data set [3] (75% relative humidity) is “stable”. Further, the Deliquescence or hygroscopicity entry in data set [3] (about 95% relative humidity) was “no deliquescence or hygroscopicity”. Moreover, the Water absorption entry in data set [3] (at about 95% relative humidity) is given as “about 1%”. Moreover, the aqueous solubility in [6] (depends on the pH in aqueous environments) was 50 to 100 mg/mL. Besides, the “Solubility in water or aqueous systems (in words)” value (“Solubility … (in words)” for short) in data set [6] is “very high”. The “Change of crystal form after exposure to humidity” value in data set [4] was “remained unchanged”. For the same compound, the “HPLC purity after exposure to humidity” value in data set [4] came to 99.7%. The “Assay (Active Ingredient %)” value is on record as 99.8% in [7] (0 M); 99.8% in data set [7] (1 M); 99.7% in data set [7] (3 M); 99.8% in [7] (6 M); 99.4% in data set [7] (9 M); 99.1% in data set [7] (12 M). In addition, the “Assay (Active Ingredient %)” value in [8] (0 M) is 99.8%; in data set [8] (1 M), 99.8%; in data set [8] (3 M), 99.5%; in data set [8] (6 M), 99.7%. The “Individual Related Substances (%)” value in data set [7] (0 M) is on record as 0.06%; in data set [7] (1 M) it was 0.05%; in data set [7] (3 M), less than 0.05%; in data set [7] (6 M), 0.06%; in [7] (9 M), less than 0.05%; in data set [7] (12 M) it was 0.05%. In addition, the “Individual Related Substances (%)” value in data set [8] (0 M) is recorded as 0.06%; in data set [8] (1 M) it was 0.05%; in [8] (3 M), less than 0.05%; in data set [8] (6 M), 0.23%. The “Moisture, KF (%)” value in [7] (0 M) is listed as 0.3%; in [7] (1 M), less than 0.1%; in [7] (3 M), less than 0.1%; in [7] (6 M) it was 0.2%; in [7] (9 M) it was less than 0.1%; in data set [7] (12 M), less than 0.1%. Besides, the “Moisture, KF (%)” value was 0.3% in data set [8] (0 M), less than 0.1% in data set [8] (1 M), less than 0.1% in [8] (3 M) and 0.1% in [8] (6 M). The “Powder X-Ray Diffraction (PXRD)” value in data set [7] (0 M), in [7] (1 M), in [7] (6 M), in data set [7] (9 M), in data set [7] (12 M) and in data set [8] (0 M) was “C” in each case. Besides, the “Powder X-Ray Diffraction (PXRD)” value in data set [8] (1 M) and in data set [8] (6 M) was “C” in each case. Moreover, the “Product Appearance” value in data set [7] (0 M), in [7] (1 M), in data set [7] (3 M), in data set [7] (6 M), in data set [7] (9 M) and in [7] (12 M) was “Conforms” each time. Also, the “Total Related Substances (%)” value in data set [7] (0 M) was 0.06%; in data set [7] (1 M), 0.05%; in [7] (3 M), less than 0.05%; in data set [7] (6 M), less than 0.06%; in data set [7] (9 M) it was less than 0.05%; in [7] (12 M), 0.05%. In addition, the “Total Related Substances (%)” value in data set [8] (0 M) was 0.06%; in data set [8] (1 M), 0.05%; in data set [8] (3 M), less than 0.05%; in [8] (6 M) it was 0.23%. Further, the “Impurity D” value in [7] (9 M) and in [7] (12 M) was 0.2 throughout. Also, the “Changes in polymorphic purities” value in data set [7] (60% RH at 25° C. for 12 months and 75% RH at 40° C. for 6 months) is given as “No changes”. In addition, the “HPLC purity after thermal treatment” value in data set [5] was 99.7%. In data set [5], the “State of the material after thermal treatment” value is “substantially unchanged”.

On to `CC(C)COc1ccc(CNC(=O)N(Cc2ccc(F)cc2)C2CCN(C)CC2)cc1` [Form D, N-(4-fluorobenzyl)-N-(1-methylpiperidin-4-yl)-N′-(4-(2-methylpropyloxy)phenylmethyl)carbamide hemi-tartrate], for which, in data set [3] (53% relative humidity), the “Stability in an open container” value is on record as “stable”.

In the case of `CC(C)COc1ccc(CNC(=O)N(Cc2ccc(F)cc2)C2CCN(C)CC2)cc1` [crystalline free base of formula I, N-(4-fluorobenzyl)-N-(1-methylpiperidin-4-yl)-N′-(4-(2-methylpropyloxy)phenylmethyl)carbamide], the solubility in [9] (acetonitrile) was less than 50 mg/mL; in data set [9] (ethyl acetate), less than 30 mg/mL; in data set [9] (organic solvent or mixture, 1,4-dioxane, read-out: Solubility) it was 140 mg/mL; in [9] (organic solvent or mixture, acetone, read-out: Solubility) it was 100 mg/mL; in data set [9] (organic solvent or mixture, dichloromethane, read-out: Solubility) it was greater than 500 mg/mL; in data set [9] (organic solvent or mixture, ethanol, read-out: Solubility) it was 260 mg/mL. Also, the solubility in data set [9] (organic solvent or mixture, isopropanol, read-out: Solubility) is 100 mg/mL; in data set [9] (organic solvent or mixture, methanol, read-out: Solubility), 170 mg/mL; in data set [9] (organic solvent or mixture, tetrahydrofuran, read-out: Solubility), greater than 250 mg/mL; in data set [9] (toluene), less than 70 mg/mL; in data set [9] (water, read-out: Solubility), less than 4 mg/mL.

On to `CC(C)COc1ccc(CNC(=O)N(Cc2ccc(F)cc2)C2CCN(C)CC2)cc1` [formula I, N-(4-fluorobenzyl)-N-(1-methylpiperidin-4-yl)-N′-(4-(2-methylpropyloxy)phenylmethyl)carbamide], for which the “Solubility … (in words)” value in data set [6] is “low solubility”.

For `CC(C)COc1ccc(CNC(=O)N(Cc2ccc(F)cc2)C2CCN(C)CC2)cc1` [formula IV, N-(4-fluorobenzyl)-N-(1-methylpiperidin-4-yl)-N′-(4-(2-methylpropyloxy)phenylmethyl)carbamide hemi-tartrate], in [6], the “Solubility … (in words)” value was “very good solubility”.

As a reminder, the aqueous solubility is the concentration that dissolves in the medium under given conditions. One may read the solubility as the dissolved amount per volume that the medium holds.
